According to the supplement of paper PMC10307832:

How the values were obtained:
Assay in all cases: relative viability (nuclei count vs DMSO), 5 days (fraction); higher = more cells survive
[1] = compound: Cn1nnc2c(C(N)=O)ncn2c1=O [Temozolomide] + CCNC(=O)c1noc(-c2cc(C(C)C)c(O)cc2O)c1-c1ccc(CN2CCOCC2)cc1 [Luminespib] (partner 0.01 µM)
Outline: (§1)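 A single step with final 0.05% Triton X-100, 1% formaldehyde and 1 ug/ml Hoechst fixed the cells and stained nuclei 5 days after treatment. Lung cancer cell lines in 1536-well plates had been treated by pin tool the day after seeding with one drug alone or a fixed anchor-drug dose plus five library-drug doses (not always all listed) in √10 steps, and nuclei were counted on 4× images. Relative viability is the ratio of nuclei in treated wells to nuclei in vehicle wells, taken as the median of duplicate plates.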

Temozolomide + Alpelisib = compound: Cn1nnc2c(C(N)=O)ncn2c1=O [Temozolomide] + Cc1nc(NC(=O)N2CCC[C@H]2C(N)=O)sc1-c1ccnc(C(C)(C)C(F)(F)F)c1 [Alpelisib] (partner 2 µM)
Outline: as §1

AZD5582 + Navitoclax = compound: C[C@@H](C(=O)N[C@@H](C1CCCCC1)C(=O)N2CCC[C@H]2C(=O)N[C@@H]3[C@@H](CC4=CC=CC=C34)OCC#CC#CCO[C@@H]5CC6=CC=CC=C6[C@@H]5NC(=O)[C@@H]7CCCN7C(=O)[C@H](C8CCCCC8)NC(=O)[C@H](C)NC)NC [AZD5582] + CC1(C)CCC(c2ccc(Cl)cc2)=C(CN2CCN(c3ccc(C(=O)NS(=O)(=O)c4ccc(N[C@H](CCN5CCOCC5)CSc5ccccc5)c(S(=O)(=O)C(F)(F)F)c4)cc3)CC2)C1 [Navitoclax] (partner 0.5 µM)
Outline: as §1

AZD5582 + Phenformin = compound: C[C@@H](C(=O)N[C@@H](C1CCCCC1)C(=O)N2CCC[C@H]2C(=O)N[C@@H]3[C@@H](CC4=CC=CC=C34)OCC#CC#CCO[C@@H]5CC6=CC=CC=C6[C@@H]5NC(=O)[C@@H]7CCCN7C(=O)[C@H](C8CCCCC8)NC(=O)[C@H](C)NC)NC [AZD5582] + N=C(N)NC(=N)NCCc1ccccc1 [Phenformin] (partner 250 µM)
Outline: as §1

| Cell Line | relative viability ([1]; first compound 0.2 µM) | relative viability ([1]; first compound 0.6325 µM) | relative viability ([1]; first compound 2 µM) | relative viability ([1]; first compound 6.325 µM) | relative viability ([1]; first compound 20 µM) | relative viability (Temozolomide + Alpelisib; first compound 0.2 µM) | relative viability (Temozolomide + Alpelisib; first compound 0.6325 µM) | relative viability (Temozolomide + Alpelisib; first compound 2 µM) | relative viability (Temozolomide + Alpelisib; first compound 6.325 µM) | relative viability (Temozolomide + Alpelisib; first compound 20 µM) | relative viability (AZD5582 + Navitoclax; first compound 0.001581 µM) | relative viability (AZD5582 + Navitoclax; first compound 0.005 µM) | relative viability (AZD5582 + Navitoclax; first compound 0.01581 µM) | relative viability (AZD5582 + Navitoclax; first compound 0.05 µM) | relative viability (AZD5582 + Phenformin; first compound 0.001581 µM) | relative viability (AZD5582 + Phenformin; first compound 0.005 µM) | relative viability (AZD5582 + Phenformin; first compound 0.01581 µM) | relative viability (AZD5582 + Phenformin; first compound 0.05 µM) |
| --- | --- | --- | --- | --- | --- | --- | --- | --- | --- | --- | --- | --- | --- | --- | --- | --- | --- | --- |
| LXF-289 | 0.712 | 0.782 | 0.722 | 0.729 | 0.659 | 1.06 | 0.997 | 1.04 | 0.992 | 0.947 | 0.948 | 0.935 | 0.919 | 0.934 | 0.484 | 0.488 | 0.409 | 0.486 |
| NCI-H23 | 0.223 | 0.208 | 0.229 | 0.21 | 0.237 | 0.645 | 0.73 | 0.552 | 0.764 | 0.734 | 0.594 | 0.512 | 0.721 | 0.778 | 0.66 | 0.611 | 0.518 | 0.425 |
| NCI-H358 | – | 0.271 | 0.485 | 0.347 | 0.404 | 0.657 | 0.729 | 0.912 | 0.833 | 0.676 | – | – | – | – | 0.366 | 0.374 | 0.399 | 0.313 |
| NCI-H522 | 0.877 | 1.21 | 0.981 | 1.18 | 1.05 | – | – | – | – | – | – | – | – | – | 0.635 | 0.643 | 0.649 | 0.65 |
| NCI-H650 | 0.607 | 0.898 | 0.816 | 0.739 | 0.846 | 1.18 | 1.19 | 1.13 | 1.12 | 1.06 | – | – | – | – | 0.417 | 0.401 | 0.342 | 0.385 |
| NCI-H661 | 0.977 | 0.931 | 0.934 | 0.879 | 0.843 | – | 0.618 | 0.759 | 0.714 | 0.545 | – | – | – | – | 0.268 | 0.271 | 0.269 | 0.267 |
| NCI-H1299 | – | – | – | – | – | 1.11 | 1.11 | 1.14 | 1.04 | 1.05 | 1 | 1.07 | 1.08 | 1.04 | – | – | – | – |
| NCI-H1563 | 0.472 | 0.499 | 0.525 | 0.533 | 0.487 | 0.957 | 1 | 1.01 | 0.861 | 0.94 | – | – | – | – | 0.641 | 0.665 | 0.574 | 0.627 |
| NCI-H1623 | – | 0.488 | 0.416 | 0.361 | 0.519 | – | – | – | – | – | – | – | – | – | 0.565 | 0.61 | 0.565 | 0.46 |
| NCI-H1650 | 0.187 | 0.205 | 0.178 | 0.189 | 0.217 | – | – | – | – | – | 1.07 | 1.04 | 1.23 | 1.17 | 0.461 | 0.492 | 0.342 | 0.394 |
| NCI-H2342 | 0.633 | 0.674 | 0.706 | 0.629 | 0.637 | – | – | – | – | – | – | – | – | – | 0.551 | 0.556 | 0.528 | 0.634 |
| SW 900 | 0.163 | 0.175 | 0.169 | 0.131 | 0.149 | – | – | – | – | – | – | – | – | – | 0.502 | 0.632 | 0.414 | 0.401 |
